Earlier results on 2 compounds are cited in patent publication EP4578441A1, “TREATMENT OF LOCALIZED PAIN” (PlantTec Medical GmbH, priority 2023, dated 2025).

Like-named read-outs stand apart in the source and are kept apart here.

The conditions of series [1]: free base.
A further series relates to volunteers. To be noted: i.v. infusions.

For the compound `CCCN1CCCC[C@H]1C(=O)Nc1c(C)cccc1C` [ropivacaine free base, (S)-1-Propyl-2',6'-dimethyl-2-piperidylcarboxyanilide], the water solubility result in series [1] is “weak”.
On to `CCCN1CCCC[C@H]1C(=O)Nc1c(C)cccc1C` [ropivacaine, (S)-1-Propyl-2',6'-dimethyl-2-piperidylcarboxyanilide], for which the “CNS toxicity threshold, free plasma ropivacaine concentration” value in the series with volunteers (free plasma concentration) was 0.60 µg/mL. In addition, the “CNS toxicity threshold, free plasma ropivacaine concentration, maximum” value in the series on volunteers (maximum) was 0.85 µg/mL. Further, in the series with volunteers (minimum), the CNS toxicity threshold, free plasma ropivacaine concentration, minimum is 0.34 µg/mL. Also, the “safety of local administration” value is “safe” (dose of 400 mg) and “safe” (dose of 800 mg).
